Assay results from the NIST ThermoML archive (doi:10.1016/j.tca.2009.06.012).
Numbers after ± are expanded uncertainties.

Key:
[1] = Molar enthalpy of transition or fusion; details: Crystal; DSC
[2] = Crystal

Normal melting temperature ([2]; visual observation) | Compound | Molar enthalpy of transition or fusion [1] | Normal melting temperature ([2]; DTA)
167.50 ± 0.5 °C | Brc1ccc(-c2ccc(Br)cc2)cc1 [4,4'-dibromo-1,1'-biphenyl] | 6.78 ± 0.203 kcal/mol | –
– | N#CCCC#N [butanedinitrile] | 0.884 ± 0.0765 kcal/mol | 56.50 ± 0.5 °C
